In this assay the target is T1, isolated kinase domain of the human FLT3 receptor (a.a. 571-993) (Homo sapiens, UniProt P36888).
T1 construct: isolated kinase domain of the human FLT3 receptor (a.a. 571-993)
T1 sequence (P36888 571-993): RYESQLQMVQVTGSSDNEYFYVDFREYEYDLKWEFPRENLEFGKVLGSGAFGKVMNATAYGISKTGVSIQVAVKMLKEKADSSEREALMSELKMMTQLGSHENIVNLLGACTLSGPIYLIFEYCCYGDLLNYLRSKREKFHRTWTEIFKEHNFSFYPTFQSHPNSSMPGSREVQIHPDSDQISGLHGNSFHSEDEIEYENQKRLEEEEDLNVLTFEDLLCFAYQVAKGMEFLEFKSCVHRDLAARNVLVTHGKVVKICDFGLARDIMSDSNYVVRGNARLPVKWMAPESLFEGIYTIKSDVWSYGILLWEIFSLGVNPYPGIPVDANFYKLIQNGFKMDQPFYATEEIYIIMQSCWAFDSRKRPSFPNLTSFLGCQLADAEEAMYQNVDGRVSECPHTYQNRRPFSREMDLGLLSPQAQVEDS
In words: FLT3 Fluorescence Polarization Kinase Assay. In kind it is biochemical. The note with it: 10 nM FLT3 571-993, 150 uM ATP; uncertainty ±10%. As to the method:
FLT3 Fluorescence Polarization Kinase Assay
To determine the activity of the FLT3 inhibitors of Formula I′ in an in vitro kinase assay, inhibition of the isolated kinase domain of the human FLT3 receptor (a.a. 571-993) was performed using the following fluorescence polarization (FP) protocol. The FLT3 FP assay utilizes the fluorescein-labeled phosphopeptide and the anti-phosphotyrosine antibody included in the Panvera Phospho-Tyrosine Kinase Kit (Green) supplied by Invitrogen. When FLT3 phosphorylates polyGlu4Tyr, the fluorescein-labeled phosphopeptide is displaced from the anti-phosphotyrosine antibody by the phosphorylated poly Glu4Tyr, thus decreasing the FP value. The FLT3 kinase reaction is incubated at room temperature for 30 minutes under the following conditions: 10 nM FLT3 571-993, 20 ug/mL poly Glu4Tyr, 150 uM ATP, 5 mM MgCl2, 1% compound in DMSO. The kinase reaction is stopped with the addition of EDTA. The fluorescein-labeled phosphopeptide and the anti-phosphotyrosine antibody are added and incubated for 30 minutes at room temperature.
All data points are an average of triplicate samples. Inhibition and IC50 data analysis was done with GraphPad Prism using a non-linear regression fit with a multiparamater, sigmoidal dose-response (variable slope) equation.
Background: Polarisation of emitted light reports the rotation of a fluorescent probe.

For the compound `CO/N=C/c1c(N)ncnc1N1CCC(OC(=O)Nc2ccc(OC(C)C)cc2)CC1` [Number 1, (4-Isopropoxy-phenyl)-carbamic acid 1-[6-amino-5-(methoxyimino-methyl)-pyrimidin-4-yl]-piperidin-4-yl ester], the IC50 – broadly, the point on the concentration scale where inhibition reaches its midpoint – came out at 150 nM.
On to `CCO/N=C/c1c(N)ncnc1N1CCC(OC(=O)Nc2ccc(OC(C)C)cc2)CC1` [Number 2, (4-Isopropoxy-phenyl)-carbamic acid 1-[6-amino-5-(ethoxyimino-methyl)-pyrimidin-4-yl]-piperidin-4-yl ester], for which half-maximal inhibition (IC50) required 55 nM.
In the case of `CC(C)Oc1ccc(NC(=O)OC2CCN(c3ncnc(N)c3/C=N/OCCCN(C)C)CC2)cc1` [Number 4, (4-Isopropoxy-phenyl)-carbamic acid 1-{6-amino-5-[(3-dimethylamino-propoxyimino)-methyl]-pyrimidin-4-yl}-piperidin-4-yl ester], the IC50 worked out at 300 nM.
In turn, `CO/N=C/c1c(N)ncnc1N1CCC(OC(=O)Nc2ccc(C(C)C)cc2)CC1` [Number 5, (4-Isopropyl-phenyl)-carbamic acid 1-[6-amino-5-(methoxyimino-methyl)-pyrimidin-4-yl]-piperidin-4-yl ester] showed an IC50 of 29 nM. This IC50 is about 10-fold lower than that of the compound before.
In turn, `CO/N=C/c1c(N)ncnc1N1CCC(CC(=O)Nc2ccc(C(C)C)cc2)C1` (stereo not shown) [Number 6, 2-{1-[6-Amino-5-(methoxyimino-methyl)-pyrimidin-4-yl]-pyrrolidin-3-yl}-N-(4-isopropyl-phenyl)-acetamide] gave an IC50 of 16 nM.
In turn, `CO/N=C/c1c(N)ncnc1N1CCC(CC(=O)Nc2ccc(C(C)C)cc2)CC1` [Number 7, 2-{1-[6-Amino-5-(methoxyimino-methyl)-pyrimidin-4-yl]-piperidin-4-yl}-N-(4-isopropyl-phenyl)-acetamide] came in with an IC50 of 81 nM.
Take `CO/N=C/c1c(N)ncnc1N1CCC(NC(=O)Nc2ccc(OC(C)C)cc2)C1` (stereo not shown) [Number 8, 1-{1-[6-Amino-5-(methoxyimino-methyl)-pyrimidin-4-yl]-pyrrolidin-3-yl}-3-(4-isopropoxy-phenyl)-urea]: the IC50 was found to be 290 nM.
Regarding `CO/N=C/c1c(N)ncnc1N1CCC(NC(=O)Nc2ccc(N3CCCCC3)cc2)C1` (stereo not shown) [Number 9, 1-{1-[6-Amino-5-(methoxyimino-methyl)-pyrimidin-4-yl]-pyrrolidin-3-yl}-3-(4-piperidin-1-yl-phenyl)-urea], the IC50 is 450 nM.
Compound `CO/N=C/c1c(N)ncnc1N1CCC(NC(=O)Nc2ccc(N3CCOCC3)cc2)C1` (stereo not shown) [Number 10, 1-{1-[6-Amino-5-(methoxyimino-methyl)-pyrimidin-4-yl]-pyrrolidin-3-yl}-3-(4-morpholin-4-yl-phenyl)-urea] had an IC50 of 1100 nM.
Compound `CO/N=C/c1c(N)ncnc1N1CCC(NC(=O)Nc2ccc(OC3CCC3)nc2)C1` (stereo not shown) [Number 11, 1-{1-[6-Amino-5-(methoxyimino-methyl)-pyrimidin-4-yl]-pyrrolidin-3-yl}-3-(6-cyclobutoxy-pyridin-3-yl)-urea] yielded an IC50 of 160 nM.
In turn, `CO/N=C/c1c(N)ncnc1N1CCC(NC(=O)Nc2ccc(OC(C)C)cc2)CC1` [Number 12, 1-{1-[6-Amino-5-(methoxyimino-methyl)-pyrimidin-4-yl]-piperidin-4-yl}-3-(4-isopropoxy-phenyl)-urea] had an IC50 of 460 nM.
In turn, `CO/N=C/c1c(N)ncnc1N1CCC(NC(=O)Nc2ccc(N3CCCCC3)cc2)CC1` [Number 13, 1-{1-[6-Amino-5-(methoxyimino-methyl)-pyrimidin-4-yl]-piperidin-4-yl}-3-(4-piperidin-1-yl-phenyl)-urea] registered an IC50 of 310 nM.
The compound `CO/N=C/c1c(N)ncnc1N1CCC(NC(=O)Nc2ccc(N3CCOCC3)cc2)CC1` [Number 14, 1-{1-[6-Amino-5-(methoxyimino-methyl)-pyrimidin-4-yl]-piperidin-4-yl}-3-(4-morpholin-4-yl-phenyl)-urea] registered an IC50 of 880 nM.
Compound `CO/N=C/c1c(N)ncnc1N1CCC(NC(=O)Nc2ccc(OC3CCC3)nc2)CC1` [Number 15, 1-{1-[6-Amino-5-(methoxyimino-methyl)-pyrimidin-4-yl]-piperidin-4-yl}-3-(6-cyclobutoxy-pyridin-3-yl)-urea] displayed an IC50 of 410 nM.
Take `CO/N=C/c1c(N)ncnc1N1CCC(NC(=O)Nc2ccc(C3CCCCC3)cc2)C1` (stereo not shown) [Number 17, 1-{1-[6-Amino-5-(methoxyimino-methyl)-pyrimidin-4-yl]-pyrrolidin-3-yl}-3-(4-cyclohexyl-phenyl)-urea]: the half-maximal inhibitory concentration (IC50) is above 10000 nM.
`CO/N=C/c1c(N)ncnc1N1CCC(NC(=O)Nc2ccc(Cl)cc2)C1` (stereo not shown) [Number 18, 1-{1-[6-Amino-5-(methoxyimino-methyl)-pyrimidin-4-yl]-pyrrolidin-3-yl}-3-(4-chloro-phenyl)-urea]: inhibition was half-maximal at 2970 nM (IC50).
For `CO/N=C/c1c(N)ncnc1N1CCC(NC(=O)Nc2ccc(Oc3ccccc3)cc2)C1` (stereo not shown) [Number 19, 1-{1-[6-Amino-5-(methoxyimino-methyl)-pyrimidin-4-yl]-pyrrolidin-3-yl}-3-(4-phenoxy-phenyl)-urea], the IC50 came out at 2500 nM.
Regarding `CO/N=C/c1c(N)ncnc1N1CCC(NC(=O)Nc2ccc(N3CCCC3)cc2)C1` (stereo not shown) [Number 20, 1-{1-[6-Amino-5-(methoxyimino-methyl)-pyrimidin-4-yl]-pyrrolidin-3-yl}-3-(4-pyrrolidin-1-yl-phenyl)-urea], the midpoint of inhibition, the IC50, lay at 4500 nM. Against the preceding compound, the IC50 is about 1.8-fold higher.
On to `CO/N=C/c1c(N)ncnc1N1CCC(NC(=O)Nc2ccc(OC3CCCC3)nc2)C1` (stereo not shown) [Number 21, 1-{1-[6-Amino-5-(methoxyimino-methyl)-pyrimidin-4-yl]-pyrrolidin-3-yl}-3-(6-cyclopentyloxy-pyridin-3-yl)-urea], for which the IC50 worked out at 4500 nM.
For `CO/N=C/c1c(N)ncnc1N1CCC(NC(=O)Nc2ccc(C3CCCCC3)cc2)CC1` [Number 22, 1-{1-[6-Amino-5-(methoxyimino-methyl)-pyrimidin-4-yl]-piperidin-4-yl}-3-(4-cyclohexyl-phenyl)-urea], the IC50 came out at 78 nM.
Under `CO/N=C/c1c(N)ncnc1N1CCC(NC(=O)Nc2ccc(OC3CCCC3)nc2)CC1` [Number 23, 1-{1-[6-Amino-5-(methoxyimino-methyl)-pyrimidin-4-yl]-piperidin-4-yl}-3-(6-cyclopentyloxy-pyridin-3-yl)-urea] stands 65 nM; under `CO/N=C/c1c(N)ncnc1N1CCC(NC(=O)Nc2ccc(Cl)cc2)CC1` [Number 25, 1-{1-[6-Amino-5-(methoxyimino-methyl)-pyrimidin-4-yl]-piperidin-4-yl}-3-(4-chloro-phenyl)-urea], 34 nM.
Regarding `CO/N=C/c1c(N)ncnc1N1CCC(NC(=O)Nc2ccc(Oc3ccccc3)cc2)CC1` [Number 26, 1-{1-[6-Amino-5-(methoxyimino-methyl)-pyrimidin-4-yl]-piperidin-4-yl}-3-(4-phenoxy-phenyl)-urea], the IC50 amounted to 20 nM.
In the case of `CCNC(=O)NCCO/N=C/c1c(N)ncnc1N1CCC(NC(=O)Nc2ccc(C(C)C)cc2)C1` (stereo not shown) [Number 28, 1-[1-(6-Amino-5-{[2-(3-ethyl-ureido)-ethoxyimino]-methyl}-pyrimidin-4-yl)-pyrrolidin-3-yl]-3-(4-isopropyl-phenyl)-urea], half-maximal inhibition (IC50) was put at 2700 nM.
Under `CC(C)c1ccc(NC(=O)NC2CCN(c3ncnc(N)c3/C=N/OCC(=O)N3CCOCC3)C2)cc1` (stereo not shown) [Number 29, 1-(1-{6-Amino-5-[(2-morpholin-4-yl-2-oxo-ethoxyimino)-methyl]-pyrimidin-4-yl}-pyrrolidin-3-yl)-3-(4-isopropyl-phenyl)-urea] stands 1200 nM.

The values above are taken from patent publication US20060281700A1, “SYNERGISTIC MODULATION OF FLT3 KINASE USING AMINOPYRIMIDINES KINASE MODULATORS” (priority 2005, published 2006).
